These results are taken from paper PMC10820640, “An Intravenous Pharmacokinetic Study of Cannabidiol Solutions in Piglets through the Application of a Validated Ultra-High-Pressure Liquid Chromatography Coupled to Tandem Mass Spectrometry Method for the Simultaneous Quantification of CBD and Its Carboxylated Metabolite in Plasma” (Pharmaceutics, 2024).

Read-outs that look alike come from different tables or passages of the source.

The AUC(0-t) is exposure summed from dosing to a finite time, without extrapolation to infinity. In general, Cmax refers to the maximum level reached in the sampled fluid or tissue. The term clearance denotes the rate of elimination divided by the concentration. Broadly, the half-life is how long it takes for the measured level to halve.

The nature of data set [1]: Intravenous pharmacokinetic study of CBD:HP-β-CD solution in piglets (UHPLC-MS/MS plasma quantification). In kind it is in vivo, Large White piglets. Also noted: A (macro constant): unit not given beside the values; γ (macro constant) / α (macro constant) / B (macro constant) / β (macro constant) / C (macro constant): unit not given here. Conditions: for AUC(0-t) / Cmax: piglet plasma, IV 0.3 mg/kg CBD, non-compartmental analysis, normalized to dose. As to the method: The in vivo study was performed within the PigForLife® (CER Group Facilities) GLP structure (Marloie, Belgium). The study protocols were approved by the Local Ethical Commission before starting the study and complied with the Belgian regulation as published in the «Royal Decree of 29 May 2013 on the protection of experimental animals, A.G.W. 30 November 2017».
Sterile and isotonic CBD:HP-β-CD 100 mM (1.2 mg CBD/mL) solutions were prepared. A HP-β-CD stock solution (200 mM) was prepared by dissolving 31.0 g of HP-β-CD up to 100 mL with milliQ water. CBD:HP-β-CD complexes were prepared by adding an excess of CBD (45 mg) powder to 5 mL of milliQ water and 5 mL of the HP-β-CD stock solution, added with 84 mg of NaCl. The suspensions were kept in a rotating water bath set at 37 °C for 12 h. The suspensions were finally filtered through a 0.2 µm PHENEX® PTFE filter in laminar flow insulator conditions. The osmolarity and the pH value of the solutions were determined using a Freezing Point Osmometer (Löser, Delta Labo, Avignon, France) and a pH meter (Seven Easy, Mettler Toledo, Zaventem, Belgium), respectively. The solutions were injected to three Large White piglets (male and female, between 8 and 10 kg) at a dose of 0.3 mg/kg, as detailed in Table 3.
The animals were born on site and used in good health. The animals were housed together in pens of about 40 m^2 and an enriched environment was provided. Natural temperature and light cycles were used in a straw litter. During storage, the animals were fed ad libitum with a balanced pellet diet and were not given any curative or prophylactic veterinary drugs or additives during the study period. Tap water was available ad libitum. The piglets were fasted overnight ([…]) before receiving the formulations. All piglets were clinically examined before the study and before sampling. Blood samples (2 mL in EDTA tubes) were taken at 5 min, 10 min, 20 min, 30 min 45 min, 60 min, 90 min, 2 h, 4 h and 8 h. Blood samples were stored at 4 °C and centrifuged at 2500× g for 10 min. Plasma samples were then frozen at −80 °C until their analysis.
Pharmacokinetic analyses were evaluated by using the software Phoenix WinNonlin 8.4 version (Certara, Princeton, NJ, USA). Cmax and AUClast were determined through a non-compartmental pharmacokinetic analysis using the linear trapezoidal linear interpolation calculation method. Obtained values were normalized do the dose administered. The volumes of distribution (V1 and Vss), clearance and macro (A, B, C, α, β, γ) and micro (k10, k12, k21, k13, k31) constants were determined assuming a 2- or 3-compartment model. The model offering the best compromise between fitting and the number of parameters was selected based on an F test approach.

Details of data set [2]: method as in PMID 34400185. The following applies: reported in the literature; cited from earlier work.
On the set-up of data set [3]: method as in PMID 30534073. Conditions: humans, cited from earlier work.
Details of data set [4]: method as in PMID 31173966. Conditions: mice, CBD emulsion IV 10 mg/kg; cited from earlier work.
On the set-up of data set [5]: method as in PMID 35895770. The following applies: horses, IV CBD in DMSO 0.1 mg/kg; cited from earlier work.
Where [6] appears, read: both sexes, Large White, pig, n = 3.
[7] abbreviates: IV-bolus three-compartment model, n = 2.
The mark [8] stands for this setting: IV-bolus three-compartment model, n = 3.
[9] abbreviates: IV-bolus two-compartment model, n = 2.
[10] abbreviates: IV-bolus two-compartment model, n = 3.
Where [11] appears, read: piglets, IV, two-compartment model.

In data set [1] (setting [6]), `C=C(C)C1CCC(C(=O)O)=CC1c1c(O)cc(CCCCC)cc1O` (centres unmarked) [7-COOH-CBD, 7-COOH-cannabidiol] showed an AUC(0-t) of 3930 ± 572 ng·h/mL and a Cmax of 610 ± 169 ng/mL. In addition, the “earliest time metabolite concentrations were observed” value in data set [1] (piglet plasma after IV CBD 0.3 mg/kg, first sampling point) worked out at 5 min. In addition, the “metabolite plasmatic concentration relative to that of CBD” value in data set [2] is listed as 40 fold.
As to `C=C(C)[C@@H]1CCC(C)=C[C@H]1c1c(O)cc(CCCCC)cc1O` [CBD, Cannabidiol], in data set [1] (setting [7]), the “A (macro constant)” value turned out to be 638.52 ± 60.91, the “B (macro constant)” value was 330.39 ± 41.34, the “C (macro constant)” value is on record as 17.71 ± 15.74 and the “α (macro constant)” value turned out to be 12.28 ± 7.90. In data set [1] (setting [7]), the “β (macro constant)” value turned out to be 0.80 ± 0.19 and the “γ (macro constant)” value was found to be 0.09 ± 0.12. For the same molecule, in data set [1] (setting [8]), the “A (macro constant)” value is reported as 640.14 ± 43.16, the “C (macro constant)” value is reported as 10.56 ± 6.33, the “β (macro constant)” value is recorded as 0.70 ± 0.21 and the “γ (macro constant)” value stood at 316.02 ± 38.40. Besides, in data set [1] (setting [9]), the “A (macro constant)” value is given as 500.89 ± 129.30, the “B (macro constant)” value turned out to be 133.91 ± 105.05, the “α (macro constant)” value was 2.75 ± 2.18 and the “β (macro constant)” value amounted to 0.33 ± 0.10. Moreover, in data set [1] (setting [10]), the “A (macro constant)” value is on record as 542.53 ± 116.45, the “B (macro constant)” value worked out at 168.95 ± 95.92, the “α (macro constant)” value was determined as 3.71 ± 2.26 and the “β (macro constant)” value is on record as 0.34 ± 0.07. For the same molecule, in data set [1] (both sexes, Large White, pig, plasma, 0.3 mg/kg, piglets, IV, two-compartment model, read-out: Cl (clearance) (converted)), the clearance is 25.2 mL/min. Besides, in data set [1] (both sexes, Large White, pig, plasma, 0.3 mg/kg, piglets, IV, two-compartment model, read-out: Vss (volume at steady state)), the Vd was found to be 3.26 ± 0.287 L. In addition, in data set [1] (setting [6]), the AUC(0-t) came to 639 ± 79.2 ng·h/mL and the Cmax was determined as 600 ± 75.8 ng/mL. In data set [1] (both sexes, Large White, pig, piglets, IV 0.3 mg/kg CBD:HP-β-CD solution, experimental plasma profile, read-out: apparent distribution half-life (converted)), the half-life was 0.25 h. Moreover, the elimination half-life entry in data set [1] (piglets, IV 0.3 mg/kg CBD:HP-β-CD solution, experimental plasma profile) was “two”. For the same molecule, in data set [1] (setting [11]), the “Capacity (k12/k21)” value was 1.5; the “Depth (k10/k12)” value was determined as 0.58; the “V1 (volume of the central compartment)” value amounted to 1512.43 ± 538.41 mL; the “fc (ratio of quantity in the central compartment over total quantity, β/k1-0)” value is on record as 0.33. Besides, in data set [1] (setting [11]), the “k1-0 (micro constant)” value turned out to be 1.04 ± 0.20 h⁻¹, the “k1-2 (micro constant)” value came out at 1.80 ± 1.43 h⁻¹ and the “k2-1 (micro constant)” value stood at 1.20 ± 0.74 h⁻¹. In addition, the “half-life of elimination (t1/2)” value in data set [3] (after chronic oral administration) was “several days”. Also, in data set [3] (following an intravenous injection), the clearance is 74.4 L/h. The “half-life of elimination (t1/2)” value in data set [3] (pulmonary or single oral administration) is reported as “around one or two”. Also, in data set [4], the clearance is 56.7 mL/min/kg and the half-life was 3.9 h. Further, the half-life in data set [5] is on record as 3.15 h.
